The values below come from patent publication US20050075375A1 (priority 2003, published 2005).

Where only a bound is given, the exact number is not on record here.

The test relates to monocistronic NK5.1 HCV replicon in Huh7 cells. Description: HCV replicon assay, monocistronic replicon cell line. Type of test: cell-based, hepatitis C virus. The note with it: Hepatitis C virus, Huh-7, 72 h; Table 1; monocistronic replicon in Huh7 cells, 3 days incubation, HCV RNA/GAPDH RNA by TaqMan RT-PCR; read-out: Mono EC50 Median. The gist of the method:
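Huh7 cells carrying the monocistronic NK5.1 replicon, seeded 24 h before dosing, were exposed to six-point half-log compound series (0.6% DMSO) for 3 days at 37 °C. Replicon RNA was quantified by TaqMan RT-PCR, normalised to GAPDH and compared with DMSO controls to derive EC50.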

The term EC50 denotes the concentration giving half of the maximal effect. Consider `Brc1ccc(OCc2ccccc2)c(-c2ccn(-c3ccccn3)n2)c1` [Compound 98, 2-[3-(2-Benzyloxy-5-bromo-phenyl)-pyrazol-1-yl]-pyridine], for which the EC50 turned out to be 15 µM.
The figure for `Cc1cccnc1-n1ccc(-c2cc(Br)ccc2O)n1` [Compound 99, 4-Bromo-2-[1-(3-methyl-pyridin-2-yl)-1H-pyrazol-3-yl]-phenol] is 3.6 µM; for `Oc1ccc(Br)cc1-c1ccn(-c2ncccc2C(F)(F)F)n1` [Compound 100, 4-Bromo-2-[1-(3-trifluoromethyl-pyridin-2-yl)-1H-pyrazol-3-yl]-phenol] it is 2.3 µM; for `COc1ccc(O)c(-c2ccn(Cc3ncc(C)c(OC)c3C)n2)c1` [Compound 101, 4-Methoxy-2-[1-(4-methoxy-3,5-dimethyl-pyridin-2-ylmethyl)-1H-pyrazol-3-yl]-phenol] it is 14.6 µM.
For `COc1ccc(O)c(-c2ccn(-c3ccc(C(=O)N4CCCCC4)cn3)n2)c1` [Compound 102, {6-[3-(2-Hydroxy-5-methoxy-phenyl)-pyrazol-1-yl]-pyridin-3-yl)-piperidin-1-yl-methanone], the EC50 is greater than 32 µM.
On to `COc1ccc(OCc2ccccc2)c(-c2ccn(Cc3nccc(OC)c3OC)n2)c1` [Compound 103, 2-[3-(2-Benzyloxy-5-methoxy-phenyl)-pyrazol-1-ylmethyl]-3,4-dimethoxy-pyridine], for which the EC50 is greater than 32 µM.
On to `COc1ccc(O)c(-c2ccn(-c3ncccc3C(=O)N3CCCCC3)n2)c1` [Compound 104, {2-[3-(2-Hydroxy-5-methoxy-phenyl)-pyrazol-1-yl]-pyridin-3-yl}-piperidin-1-yl-methanone], for which the concentration giving a half-maximal response (EC50) is greater than 32 µM.
To `COc1ccc(O)c(-c2ccn(Cc3nccc(OC)c3OC)n2)c1` [Compound 105, 2-[1-(3,4-Dimethoxy-pyridin-2-ylmethyl)-1H-pyrazol-3-yl]-4-methoxy-phenol] belongs greater than 32 µM; to `Oc1ccc(Br)cc1-c1ccnn1-c1ncccc1C(F)(F)F` [Compound 106, 4-Bromo-2-[2-(3-trifluoromethyl-pyridin-2-yl)-2H-pyrazol-3-yl]-phenol], 15 µM; to `FC(F)(F)c1cccnc1-n1nccc1-c1cc(Br)ccc1OCc1ccccc1` [Compound 107, 2-[5-(2-Benzyloxy-5-bromo-phenyl)-pyrazol-1-yl]-3-trifluoromethyl-pyridine], 2.6 µM.
To `FC(F)(F)c1cccnc1-n1ccc(-c2cc(Br)ccc2OCc2ccccc2)n1` [Compound 108, 2-[3-(2-Benzyloxy-5-bromo-phenyl)-pyrazol-1-yl]-3-trifluoromethyl-pyridine] belongs greater than 32 µM; to `COc1ccc(O)c(-c2ccnn2Cc2ccc3ccccc3n2)c1` [Compound 109, 4-Methoxy-2-(2-quinolin-2-ylmethyl-2H-pyrazol-3-yl)-phenol], greater than 32 µM.
The figure for `COc1ccc(OCc2ccccc2)c(-c2ccnn2Cc2ccc3ccccc3n2)c1` [Compound 110, 2-[5-(2-Benzyloxy-5-methoxy-phenyl)-pyrazol-1-ylmethyl]-quinoline] is 8 µM.
As for `COc1ccc(O)c(-c2ccn(Cc3ccc4ccccc4n3)n2)c1` [Compound 111, 4-Methoxy-2-(1-quinolin-2-ylmethyl-1H-pyrazol-3-yl)-phenol], the EC50 came to 14 µM.
Take `COc1ccc(OCc2ccccc2)c(-c2ccn(Cc3ccc4ccccc4n3)n2)c1` [Compound 112, 2-[3-(2-Benzyloxy-5-methoxy-phenyl)-pyrazol-1-ylmethyl]-quinoline]: the EC50 turned out to be 6 µM.
As for `COc1ccc(O)c(-c2ccn(Cc3ccccn3)n2)c1` [Compound 113, 4-Methoxy-2-(1-pyridin-2-ylmethyl-1H-pyrazol-3-yl)-phenol], the EC50 is greater than 32 µM.
Turning to `COc1ccc(OCc2ccccc2)c(-c2ccn(Cc3ccccn3)n2)c1` [Compound 114, 2-[3-(2-Benzyloxy-5-methoxy-phenyl)-pyrazol-1-ylmethyl]-pyridine], the EC50 came out at 9.5 µM.
As to `COc1ccc(O)c(-c2ccnn2Cc2ccccn2)c1` [Compound 115, 4-Methoxy-2-(2-pyridin-2-ylmethyl-2H-pyrazol-3-yl)-phenol], the EC50 is greater than 32 µM.
For `COc1ccc(OCc2ccccc2)c(-c2ccnn2Cc2ccccn2)c1` [Compound 116, 2-[5-(2-Benzyloxy-5-methoxy-phenyl)-pyrazol-1-ylmethyl]-pyridine], the EC50 stood at 13 µM.
Consider `COc1ccc(O)c(-c2ccn(-c3ncccc3[N+](=O)[O-])n2)c1` [Compound 117, 4-Methoxy-2-[1-(3-nitro-pyridin-2-yl)-1H-pyrazol-3-yl]-phenol], for which the EC50 came out at 25.4 µM.
As to `COc1ccc(-c2ccn(-c3ccccn3)n2)c(O)c1OC` [Compound 118, 2,3-Dimethoxy-6-(1-pyridin-2-yl-1H-pyrazol-3-yl)-phenol], the EC50 turned out to be 23.8 µM.
Take `COc1ccc(-c2ccn(-c3ncccc3C)n2)c(O)c1OC` [Compound 119, 2,3-Dimethoxy-6-[1-(3-methyl-pyridin-2-yl)-1 H-pyrazol-3-yl]-phenol]: the EC50 was 11.8 µM.
As for `COc1cc(O)c(-c2ccn(-c3ccccn3)n2)cc1OC` [Compound 120, 4,5-Dimethoxy-2-(1-pyridin-2-yl-1H-pyrazol-3-yl)-p henol], the EC50 came to 31.2 µM.
For `COc1cc(OCc2ccccc2)c(-c2ccn(-c3ccccn3)n2)cc1OC` [Compound 121, 2-[3-(2-Benzyloxy-4,5-dimethoxy-phenyl)-pyrazol-1-yl]-pyridine], the EC50 was found to be 13.5 µM.
Turning to `COc1cc(O)c(-c2ccn(-c3ncccc3C)n2)cc1OC` [Compound 122, 4,5-Dimethoxy-2-[l-(3-methyl-pyridin-2-yl)-1H-pyrazol-3-yl]-phenol], the EC50 was determined as 13 µM.
To `Oc1ccccc1-c1cc(-c2ccccn2)on1` [Compound 123, 2-(5-Pyridin-2-yl-isoxazol-3-yl)-phenol] belongs greater than 32 µM; to `COc1cccc(-c2cc(-c3ccccn3)on2)c1O` [Compound 124, 2-Methoxy-6-(5-pyridin-2-yl-isoxazol-3-yl)-phenol], 26 µM.
As for `COc1ccc(O)c(-c2cc(-c3ccccn3)on2)c1` [Compound 125, 4-Methoxy-2-(5-pyridin-2-yl-isoxazol-3-yl)-phenol], the EC50 amounted to 11 µM.
On to `Oc1c(Cl)cc(Cl)cc1-c1cc(-c2ccccn2)on1` [Compound 127, 2,4-Dichloro-6-(5-pyridin-2-yl-isoxazol-3-yl)-phenol], for which the half-maximal effective concentration (EC50) worked out at 7.4 µM.
To `Oc1ccc(Br)cc1-c1cc(-c2ncccc2C(F)(F)F)on1` [Compound 128, 4-Bromo-2-[5-(3-trifluoromethyl-pyridin-2-yl)-isoxazol-3-yl]-phenol] belongs greater than 32 µM.
Turning to `COc1ccc(O)c(-c2cc(-c3ncccc3C(F)(F)F)on2)c1` [Compound 129, 4-Methoxy-2-[5-(3-trifluoromethyl-pyridin-2-yl)-isoxazol-3-yl]-phenol], the EC50 was found to be 3.8 µM.
Take `Oc1ccc(Br)cc1-c1cc(-c2ccccn2)on1` [Compound 130, 4-Bromo-2-(5-pyridin-2-yl-isoxazol-3-yl)-phenol]: the EC50 is 11 µM.
Consider `Cc1cccnc1-c1cc(-c2cc(Br)ccc2O)no1` [Compound 131, 4-Bromo-2-[5-(3-methyl-pyridin-2-yl)-isoxazol-3-yl]-phenol], for which the EC50 is 4.5 µM.
As to `COc1ccc(O)c(-c2cc(-c3ncccc3C)on2)c1` [Compound 132, 4-Methoxy-2-[5-(3-methyl-pyridin-2-yl)-isoxazol-3-yl]-phenol], the EC50 stood at 2 µM.
To `Oc1ccccc1-c1nc(-c2ccccn2)no1` [Compound 133, 2-(3-Pyridin-2-yl-[1,2,4]oxadiazol-5-yl)-phenol] belongs greater than 19 µM; to `Oc1ccc2ccccc2c1-c1nc(-c2ccccn2)no1` [Compound 134, 1-(3-Pyridin-2-yl-[1,2,4]oxadiazol-5-yl)-naphthalen-2-ol], 17 µM.
Consider `Oc1ccc2ccccc2c1-c1nc(-c2ccccc2)no1` [Compound 135, 1-(3-Phenyl-[1,2,4]oxadiazol-5-yl)-naphthalen-2-ol], for which the EC50 was greater than 32 µM.
The figure for `Oc1ccc2ccccc2c1-c1nc(-c2cc(C(F)(F)F)ccc2F)no1` [Compound 136, 1-[3-(2-Fluoro-5-trifluoromethyl-phenyl)-[1,2,4]oxadiazol-5-yl]-naphthalen-2-ol] is greater than 32 µM; for `O=[N+]([O-])c1cccnc1-c1noc(-c2c(O)ccc3ccccc23)n1` [Compound 137, 1-[3-(3-Nitro-pyridin-2-yl)-[1,2,4]oxadiazol-5-yl]-naphthalen-2-ol] it is 1.8 µM; for `COc1cccc(-c2nc(-c3ncccc3C(F)(F)F)no2)c1` [Compound 138, 2-[5-(3-Methoxy-phenyl)-[1,2,4]oxadiazol-3-yl]-3-trifluoromethyl-pyridine] it is greater than 19 µM.
Consider `COc1cccc(-c2nc(-c3ccccn3)no2)c1` [Compound 139, 2-[5-(3-Methoxy-phenyl)-[1,2,4]oxadiazol-3-yl]-pyridine], for which the EC50 worked out at 18 µM.
Regarding `c1ccc(-c2noc(-c3cccc4ccccc34)n2)nc1` [Compound 140, 2-(5-Naphthalen-1-yl-[1,2,4]oxadiazol-3-yl)-pyridine], the EC50 was determined as 7.1 µM.
As to `O=[N+]([O-])c1ccc(-c2nc(-c3ccccn3)no2)c(Cl)c1` [Compound 141, 2-[5-(2-Chloro-4-nitro-phenyl)-[1,2,4]oxadiazol-3-yl]-pyridine], the EC50 stood at 10 µM.
To `COc1ccc(OC)c(-c2nc(-c3ccccn3)no2)c1` [Compound 142, 2-[5-(2,5-Dimethoxy-phenyl)-[1,2,4]oxadiazol-3-yl]-pyridine] belongs 20 µM; to `COc1ccc2ccccc2c1-c1nc(-c2ccccn2)no1` [Compound 143, 2-[5-(2-Methoxy-naphthalen-1-yl)-[1,2,4]oxadiazol-3-yl]-pyridine], 13 µM.
The figure for `Oc1ccc(Br)cc1-c1nc(-c2ccccn2)no1` [Compound 144, 4-Bromo-2-(3-pyridin-2-yl-[1,2,4]oxadiazol-5-yl)-phenol] is 3.7 µM.
